Experimental data as given in patent publication US7972645B2, “Dioscorea extracts for enhancing immune system” (Academia Sinica, priority 2003, dated 2011).

Test system: NF-κB-inducible ELAM-1 composite promoter
Experiment: NF-κB-inducible ELAM-1 composite promoter reporter (SEAP) assay in transfected B16 melanoma cells
Assay type: cell-based
Conditions: Polymyxin B 400 U
Method: Briefly, B16 melanoma cells were transfected with a vector carrying the human secreted embryonic alkaline phosphatase (SEAP) gene, whose expression is under the control of a NF-κB-inducible ELAM-1 composite promoter, using a standard method for reporter (SEAP) assay. B16 melanoma cells were transfected with the NF-kB-inducible reporter plasmid pNiFty-SEAP (InvivoGen) in the presence of lipofectin (Invitrogen) for 24 hours. The SEAP secreted into medium was measured according to the manufacturer's instructions (Phospha-Light™ System, Applied Biosystems).
The transfected cells were then incubated with DsCE-I before the chemiluminescent reporter gene assays were conducted. It was known that LPS increased the activity of NF-κB and p38MAPK was involved in the LPS-induced activation. Therefore, LPS (0.1 μg/ml) was used as a positive control (Group A) and the corresponding […] was normalized as 100%. To illustrate the specificity, the effects of inhibitors of the LPS-induced activation were also examined. These inhibitors included SB203580 (“SB,” a p38MAPK inhibitor), PDTC (“PD,” a NF-κB inhibitor), and Polymyxin B (“PB,” an LPS-binding antibiotic). The solvent used to prepare the reagents was used as a negative control (Group J).

With Polymyxin B the “Inhibition of DsCE-I-induced activation (in words)” value (DsCE-I 100 μg/ml) was “only partially inhibited” and the “Inhibition of LPS-induced activation (in words)” value (LPS 0.1 μg/ml) was “inhibited LPS-induced activation completely”.
